Measured values: US20240368203A1, “DEGRADATION OF (EGFR) BY CONJUGATION OF EGFR INHIBITORS WITH E3 LIGASE LIGAND AND METHODS OF USE” (BeiGene, Ltd., priority 2022, published 2024)

How the values were obtained:
EGFR-L858R/T790M/C797S = molecular target: T1, EGFR-L858R/T790M/C797S (Homo sapiens, UniProt P00533, C797S/L858R/T790M); experiment: EGFR degradation HTRF assay in H1975-clone #25 cells; type: cell-based; details: 16 h treatment; for DC50: H1975-clone #25 (L858R/T790M/C797S) cells, IC50 (DC50), read-out: DC50(nM) H1975 # 25-LTC; for Dmax: NCI-H1975, H1975-clone #25 (L858R/T790M/C797S) cells, maximum percentage of inhibition (degradation), read-out: Dmax (%) H1975 # 25-LTC
T1 construct: expressed in transfected cells; host or cells: H1975-clone #25 (lentiviral over-expression, endogenous EGFR knocked out)
Protocol: (§1) H1975-clone #28(Del19/T790M/C797S) and H1975-clone #25(L858R/T790M/C797S). EGFR-Del19/T790M/C797S and EGFR-L858R/T790M/C797S were stably expressed in H1975 cell lines by lentivirus-mediated over-expression, respectively. The EGFR over-expressed cells then underwent knockout, in which the EGFR targeting sgRNA was designed to only target the endogenous EGFR copies and preserve the exogenous EGFR copies. Followed by knockout, the edited H1975 cells were seeded in 96 well plates at the concentration of […], cultured for about 2 weeks to allow single clones formation. The formed clones were screened by DNA sequencing and whole exon sequencing analysis for the desired edition.
(§2) H1975-clone #28, and H1975-clone #25 were finally confirmed as homozygous Del19/T790M/C797S EGFR, and L858R/T790M/C797S EGFR clones, respectively.
(§3) H1975-#25 and H1975-#28 cells are treated with compounds diluted in 0.2% DMSO cell culture medium on day 2, incubate for 16 h, 37° C., 5% CO2. the final concentration of compounds in all assay is start with 10 uM, 5-fold dilution, total 8 doses were included.
(§4) After 16 h treatment, add HTRF lysis buffer to each well; seal the plate and incubate 1 hour at room temperature on a plate shaker; Once the cells are lysed, 16 μL of cell lysate are transferred to a PE 384-well HTRF detection plate; 4 μL of pre-mixed HTRF antibodies are added to each well; Cover the plate with a plate sealer, spin 1000 rpm for 1 min, Incubate overnight at room temperature; Read on BMG PheraStar with HTRF protocol (337 nm-665 nm-620 nm).
(§5) The inhibition (degradation) percentage of the compound was calculated by the following equation:
(§6) Inhibition percentage of Compound=100−100×(Signal−low control)/(High control−low control),
(§7) The IC50 (DC50) value of a compound can be obtained by fitting the following equation
(§8) Wherein, X and Y are known values, and IC50, Hillslope, Top and Bottom are the parameters obtained by fitting with software. Y is the inhibition percentage (calculated from the equation), X is the concentration of the compound; IC50 is the concentration of the compound when the 50% inhibition is reached. The smaller the IC50 value is, the stronger the inhibitory ability of the compound is. Vice versa, the higher the IC50 value is, the weaker the ability the inhibitory ability of the compound is; Hillslope represents the slope of the fitted curve, generally around 1 *; Bottom represents the minimum value of the curve obtained by data fitting, which is generally 0%±20%; Top represents the maximum value of the curve obtained by data fitting, which is generally 100%±20%. The experimental data were fitted by calculating and analyzing with Dotmatics data analysis software.

EGFR-Del19/T790M/C797S = experiment: EGFR degradation HTRF assay in H1975-clone #28 cells; type: cell-based; details: H1975-clone #28 (Del19/T790M/C797S) cells, 16 h treatment; for DC50: IC50 (DC50), read-out: DC50(nM) H1975 # 28 DTC; for Dmax (%) H1975 # 28 DTC: maximum percentage of inhibition (degradation)
Protocol: as §1, §2, §3, §4, §5, §6, §7, §8

T1 sequence (P00533 25-1210 T790M/C797S/L858R): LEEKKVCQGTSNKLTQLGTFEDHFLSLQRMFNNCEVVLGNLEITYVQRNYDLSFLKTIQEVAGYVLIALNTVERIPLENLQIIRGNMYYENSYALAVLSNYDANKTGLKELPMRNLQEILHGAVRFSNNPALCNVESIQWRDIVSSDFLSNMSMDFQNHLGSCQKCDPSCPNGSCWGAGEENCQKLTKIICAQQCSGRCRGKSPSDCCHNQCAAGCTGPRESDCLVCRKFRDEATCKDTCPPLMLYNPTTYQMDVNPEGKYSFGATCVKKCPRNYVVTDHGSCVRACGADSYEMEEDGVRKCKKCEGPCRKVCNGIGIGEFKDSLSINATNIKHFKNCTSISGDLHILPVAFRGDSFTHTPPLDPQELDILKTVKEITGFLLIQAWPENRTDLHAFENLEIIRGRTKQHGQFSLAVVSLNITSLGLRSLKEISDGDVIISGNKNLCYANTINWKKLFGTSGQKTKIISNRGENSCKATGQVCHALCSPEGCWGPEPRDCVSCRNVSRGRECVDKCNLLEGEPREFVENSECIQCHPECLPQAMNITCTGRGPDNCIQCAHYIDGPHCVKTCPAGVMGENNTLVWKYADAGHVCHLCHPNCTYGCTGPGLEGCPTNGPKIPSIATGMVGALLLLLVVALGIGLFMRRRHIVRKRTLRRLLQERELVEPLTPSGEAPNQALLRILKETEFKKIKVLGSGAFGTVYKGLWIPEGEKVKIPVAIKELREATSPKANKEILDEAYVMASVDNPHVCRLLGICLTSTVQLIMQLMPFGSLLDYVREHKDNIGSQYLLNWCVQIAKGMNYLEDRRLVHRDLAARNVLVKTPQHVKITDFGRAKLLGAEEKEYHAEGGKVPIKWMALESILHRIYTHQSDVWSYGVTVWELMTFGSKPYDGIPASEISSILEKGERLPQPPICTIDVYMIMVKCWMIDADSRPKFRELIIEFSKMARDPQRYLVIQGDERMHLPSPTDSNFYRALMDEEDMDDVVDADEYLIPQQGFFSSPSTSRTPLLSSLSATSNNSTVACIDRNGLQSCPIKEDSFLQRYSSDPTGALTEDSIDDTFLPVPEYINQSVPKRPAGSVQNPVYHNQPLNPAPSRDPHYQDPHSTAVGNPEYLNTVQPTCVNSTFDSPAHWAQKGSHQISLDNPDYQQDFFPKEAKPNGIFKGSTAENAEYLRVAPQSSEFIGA

Row | DC50 (EGFR-L858R/T790M/C797S) [nM] | Dmax (EGFR-L858R/T790M/C797S) [%] | DC50 (EGFR-Del19/T790M/C797S) [nM] | Compound | Dmax (%) H1975 # 28 DTC (EGFR-Del19/T790M/C797S) [%]
1 | 3.1 | 89 | 2.5 | CCc1cc(Nc2ncc(Br)c(Nc3ccc4nc(C)c(F)cc4c3P(C)(C)=O)n2)c(OC)cc1N1CCC2(CC1)CCN(C1CCN(c3cccc4c3n(C)c(=O)n4C3CCC(=O)NC3=O)CC1)CC2 (stereo not drawn) [Example 51, 3-(4-(4-(9-(4-((5-bromo-4-((5-(dimethylphosphoryl)-3-fluoro-2-methylquinolin-6-yl)amino)pyrimidin-2-yl)amino)-2-ethyl-5-methoxyphenyl)-3,9-diazaspiro[5.5]undecan-3-yl)piperidin-1-yl)-3-methyl-2-oxo-2,3-dihydro-1H-benzo[d]imidazol-1-yl)piperidine-2,6-dione] | 77
2 | 3.6 | 88 | 3.6 | CCOc1cc(N2CCC(N3CCN(C4CCN(c5cc(F)c([C@H]6CCC(=O)NC6=O)c(F)c5)CC4)CC3)CC2)c(CC)cc1Nc1ncc(Cl)c(Nc2ccc3nc(C)c(F)cc3c2P(C)(C)=O)n1 [Example 54, (R)-3-(4-(4-(4-(1-(4-((5-chloro-4-((5-(dimethylphosphoryl)-3-fluoro-2-methylquinolin-6-yl)amino)pyrimidin-2-yl)amino)-5-ethoxy-2-ethylphenyl)piperidin-4-yl)piperazin-1-yl)piperidin-1-yl)-2,6-difluorophenyl)piperidine-2,6-dione] | 86
3 | 3.8 | 96 | 3.1 | CCc1cc(Nc2ncc(Br)c(Nc3ccc4nc(C)c(F)cc4c3P(C)(C)=O)n2)c(OC)cc1N1CCC2(CCN(C(=O)CN3CCC(c4ccc(NC5CCC(=O)NC5=O)cc4)CC3)CC2)CC1 (single isomer, unassigned) [Example 29, 3-((4-(1-(2-(9-(4-((5-bromo-4-((5-(dimethylphosphoryl)-3-fluoro-2-methylquinolin-6-yl)amino)pyrimidin-2-yl)amino)-2-ethyl-5-methoxyphenyl)-3,9-diazaspiro[5.5]undecan-3-yl)-2-oxoethyl)piperidin-4-yl)phenyl)amino)piperidine-2,6-dione] | 88
4 | 1.6 | 95 | 1.4 | CCc1cc(Nc2ncc(Br)c(Nc3ccc4nc(C)c(F)cc4c3P(C)(C)=O)n2)c(OC)cc1N1CCC2(CC1)CN(C1CCN(c3cc(F)c([C@H]4CCC(=O)NC4=O)c(F)c3)CC1)C2 [Example 62, (R)-3-(4-(4-(7-(4-((5-bromo-4-((5-(dimethylphosphoryl)-3-fluoro-2-methylquinolin-6-yl)amino)pyrimidin-2-yl)amino)-2-ethyl-5-methoxyphenyl)-2,7-diazaspiro[3.5]nonan-2-yl)piperidin-1-yl)-2,6-difluorophenyl)piperidine-2,6-dione] | 89
5 | 10.8 | 89 | 13.3 | CCc1ccc2c(P(C)(C)=O)c(Nc3nc(Nc4cc(CC)c(N5CCC(N6CCC(N7CC(c8cc(F)c([C@H]9CCC(=O)NC9=O)c(F)c8)C7)CC6)CC5)cc4OC)ncc3Br)ccc2n1 (single isomer, unassigned) [Example 30] | 87
6 | 0.5 | 82 | 0.8 | CCc1ncc2c(P(C)(C)=O)c(Nc3nc(Nc4cc(CC)c(N5CCC(N6CC7(CN(c8cccc9c8n(C)c(=O)n9C8CCC(=O)NC8=O)C7)C6)CC5)cc4OC)ncc3Br)ccc2n1 (stereo not drawn) [Example 25, 3-(4-(6-(1-(4-((5-bromo-4-((5-(dimethylphosphoryl)-2-ethylquinazolin-6-yl)amino)pyrimidin-2-yl)amino)-2-ethyl-5-methoxyphenyl)piperidin-4-yl)-2,6-diazaspiro[3.3]heptan-2-yl)-3-methyl-2-oxo-2,3-dihydro-1H-benzo[d]imidazol-1-yl)piperidine-2,6-dione] | 74
7 | 2.5 | 84 | 1.5 | CCc1ncc2c(P(C)(C)=O)c(Nc3nc(Nc4cc(CC)c(N5CCC(N6CCC7(CCN(c8cc(F)c([C@H]9CCC(=O)NC9=O)c(F)c8)CC7)CC6)CC5)cc4OC)ncc3Br)ccc2n1 (single isomer, unassigned) [Example 4] | 87
8 | 5.4 | 74 | 1.9 | CCc1cc(Nc2ncc(Cl)c(Nc3ccc4nc(C)c(F)cc4c3P(C)(C)=O)n2)c(OC)cc1N1CC2(CN(CC3CN(c4cc(F)c([C@H]5CCC(=O)NC5=O)c(F)c4)C3)C2)C1 [Example 78] | 90
9 | 7.4 | 86 | 7.7 | CCc1cc(Nc2ncc(Br)c(Nc3ccc4nc(C)c(F)cc4c3P(C)(C)=O)n2)c(OC)cc1N1CCC2(CCN(CC3CCN(c4cccc5c4C(=O)N(C4CCC(=O)NC4=O)C5=O)CC3)CC2)CC1 (stereo not drawn) [Example 45, 4-(4-((9-(4-((5-bromo-4-((5-(dimethylphosphoryl)-3-fluoro-2-methylquinolin-6-yl)amino)pyrimidin-2-yl)amino)-2-ethyl-5-methoxyphenyl)-3,9-diazaspiro[5.5]undecan-3-yl)methyl)piperidin-1-yl)-2-(2,6-dioxopiperidin-3-yl)isoindoline-1,3-dione] | 81
10 | 3.3 | 95 | 6.6 | CCc1cc(Nc2ncc(Br)c(Nc3ccc4nc(C)c(F)cc4c3P(C)(C)=O)n2)c(OC)cc1N1CCC2(CCN(CC3CCN(c4cc(F)c([C@H]5CCC(=O)NC5=O)c(F)c4)CC3)CC2)CC1 [Example 79, (R)-3-(4-(4-((9-(4-((5-bromo-4-((5-(dimethylphosphoryl)-3-fluoro-2-methylquinolin-6-yl)amino)pyrimidin-2-yl)amino)-2-ethyl-5-methoxyphenyl)-3,9-diazaspiro[5.5]undecan-3-yl)methyl)piperidin-1-yl)-2,6-difluorophenyl)piperidine-2,6-dione] | 90
11 | 1.3 | 81 | 1.4 | CCOc1cc(N2CCC(N3CC4(CCN(c5cccc6c5n(C)c(=O)n6C5CCC(=O)NC5=O)CC4)C3)CC2)c(CC)cc1Nc1ncc(Cl)c(Nc2ccc3nc(C)c(F)cc3c2P(C)(C)=O)n1 (stereo not drawn) [Example 32, 3-(4-(2-(1-(4-((5-chloro-4-((5-(dimethylphosphoryl)-3-fluoro-2-methylquinolin-6-yl)amino)pyrimidin-2-yl)amino)-5-ethoxy-2-ethylphenyl)piperidin-4-yl)-2,7-diazaspiro[3.5]nonan-7-yl)-3-methyl-2-oxo-2,3-dihydro-1H-benzol[d]imidazol-1-yl)piperidine-2,6-dione] | 77
12 | 5.6 | 93 | 2.6 | CCc1cc(Nc2ncc(Br)c(Nc3ccc4nc(C)c(F)cc4c3P(C)(C)=O)n2)c(OC)cc1N1CCC2(CCN(CC3CN(c4cc(F)c([C@H]5CCC(=O)NC5=O)c(F)c4)C3)CC2)CC1 [Example 39, (R)-3-(4-(3-((9-(4-((5-bromo-4-((5-(dimethylphosphoryl)-3-fluoro-2-methylquinolin-6-yl)amino)pyrimidin-2-yl)amino)-2-ethyl-5-methoxyphenyl)-3,9-diazaspiro[5.5]undecan-3-yl)methyl)azetidin-1-yl)-2,6-difluorophenyl)piperidine-2,6-dione] | 92
